Where a SMILES comes first, the peptide text is derived from it. Bridges are numbered along the chain shown (N, C = ends).
Target: human α7-containing nAChRs (Homo sapiens, UniProt P36544)
Assay: cell-based
Type: cell-based
Settings: not given

human α7-containing nAChRs, sequence (P36544 23-502 limits assumed): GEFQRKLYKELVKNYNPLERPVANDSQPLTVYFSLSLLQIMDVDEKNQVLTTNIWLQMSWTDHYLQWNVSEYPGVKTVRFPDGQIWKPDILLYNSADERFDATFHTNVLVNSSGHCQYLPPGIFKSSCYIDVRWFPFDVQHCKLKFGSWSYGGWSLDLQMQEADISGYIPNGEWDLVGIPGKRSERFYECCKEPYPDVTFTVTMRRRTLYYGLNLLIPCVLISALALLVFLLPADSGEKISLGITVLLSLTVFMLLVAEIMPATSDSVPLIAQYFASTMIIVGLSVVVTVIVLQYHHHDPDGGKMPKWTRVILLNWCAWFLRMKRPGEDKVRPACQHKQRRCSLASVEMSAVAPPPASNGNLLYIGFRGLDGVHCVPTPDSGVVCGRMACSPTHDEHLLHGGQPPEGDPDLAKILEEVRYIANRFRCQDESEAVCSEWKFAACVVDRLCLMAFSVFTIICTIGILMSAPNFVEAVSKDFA

SMILES | IC50 [µM] | Ratio (IC50 ratio between gAusIA/rAusIA and its corresponding analogues) | fold decrease (loss) in potency relative to wildtype of same isomer
CC(C)[C@H](NC(=O)[C@@H]1CSSC[C@@H]2NC(=O)[C@@H](NC(=O)[C@@H](N)CO)CSSC[C@H](NC(=O)[C@H](C)NC(=O)[C@@H]3CCCN3C(=O)[C@H](CC(N)=O)NC(=O)[C@H](CO)NC(=O)[C@H](C)NC2=O)C(=O)N[C@@H](CCCNC(=N)N)C(=O)N[C@@H](Cc2c[nH]cn2)C(=O)N[C@@H](CC(N)=O)C(=O)N[C@@H](Cc2c[nH]cn2)C(=O)N2CCC[C@H]2C(=O)N1)C(N)=O [gAusIA [R5S]] (H-SCCASNPACRHNHPCV-NH2; disulfide 2-9, 3-15) | > 100 |  | 
CC(C)[C@H](NC(=O)[C@@H]1CSSC[C@H](NC(=O)CN)C(=O)N[C@H]2CSSC[C@H](NC(=O)[C@H](C)NC(=O)[C@@H]3CCCN3C(=O)[C@H](CC(N)=O)NC(=O)[C@H](CCCNC(=N)N)NC(=O)[C@H](C)NC2=O)C(=O)N[C@@H](CCCNC(=N)N)C(=O)N[C@@H](Cc2c[nH]cn2)C(=O)N[C@@H](CC(N)=O)C(=O)N[C@@H](Cc2c[nH]cn2)C(=O)N2CCC[C@H]2C(=O)N1)C(N)=O [rAusIA [S1G]] (H-GCCARNPACRHNHPCV-NH2; disulfide 2-15, 3-9) |  | 2.00 | two

Same assay, conditions: SEM

SMILES | IC50 [µM]
CC(C)[C@H](NC(=O)[C@@H]1CSSC[C@H](NC(=O)[C@@H](N)CO)C(=O)N[C@H]2CSSC[C@H](NC(=O)[C@H](C)NC(=O)[C@@H]3CCCN3C(=O)[C@H](CC(N)=O)NC(=O)[C@H](CO)NC(=O)[C@H](C)NC2=O)C(=O)N[C@@H](CCCNC(=N)N)C(=O)N[C@@H](Cc2c[nH]cn2)C(=O)N[C@@H](CC(N)=O)C(=O)N[C@@H](Cc2c[nH]cn2)C(=O)N2CCC[C@H]2C(=O)N1)C(N)=O [rAusIA [R5S]] (H-SCCASNPACRHNHPCV-NH2; disulfide 2-15, 3-9) | 70 ± 10
CC(C)[C@H](NC(=O)[C@@H]1CSSC[C@H](NC(=O)[C@@H](N)CO)C(=O)N[C@H]2CSSC[C@H](NC(=O)[C@H](C)NC(=O)[C@@H]3CCCN3C(=O)[C@H](CC(N)=O)NC(=O)[C@H](CCCNC(=N)N)NC2=O)C(=O)N[C@@H](CCCNC(=N)N)C(=O)N[C@@H](Cc2c[nH]cn2)C(=O)N[C@@H](CC(N)=O)C(=O)N[C@@H](Cc2c[nH]cn2)C(=O)N2CCC[C@H]2C(=O)N1)C(N)=O [rAusIA [∆4]] (H-SCCRNPACRHNHPCV-NH2; disulfide 2-14, 3-8) | 11 ± 0.24
CC[C@H](C)[C@@H]1NC(=O)[C@H](CC(N)=O)NC(=O)[C@@H]2CCCN2C(=O)[C@H](CC(N)=O)NC(=O)[C@H](CC(N)=O)NC(=O)[C@H](C(C)C)NC(=O)[C@H](CCCNC(=N)N)NC(=O)[C@@H]2CSSC[C@H](NC(=O)CNC(=O)[C@@H](N)CO)C(=O)N[C@@H](CSSC[C@@H](C(N)=O)NC1=O)C(=O)N[C@@H](CCCNC(=N)N)C(=O)N[C@@H](CC(N)=O)C(=O)N1CCC[C@H]1C(=O)N[C@@H](C)C(=O)N2 [gLsIA [S5R]] (H-SGCCRNPACRVNNPNIC-NH2; disulfide 3-9, 4-17) | 0.24 ± 0.04
C[C@@H]1NC(=O)[C@@H]2CSSC[C@@H](C(N)=O)NC(=O)[C@@H]3CCCN3C(=O)[C@H](Cc3c[nH]cn3)NC(=O)[C@H](CC(N)=O)NC(=O)[C@H](Cc3c[nH]cn3)NC(=O)[C@H](CCCNC(=N)N)NC(=O)[C@H](CSSC[C@H](NC(=O)[C@@H](N)CO)C(=O)N2)NC(=O)[C@H](C)NC(=O)[C@@H]2CCCN2C(=O)[C@H](CC(N)=O)NC(=O)[C@H](CCCNC(=N)N)NC1=O [gAusIA [∆16]] (H-SCCARNPACRHNHPC-NH2; disulfide 2-9, 3-15) | 12 ± 2.3
CC(C)[C@H](NC(=O)[C@@H]1CSSC[C@@H]2NC(=O)[C@@H](NC(=O)[C@@H](N)CO)CSSC[C@H](NC(=O)[C@H](C)NC(=O)[C@@H]3CCCN3C(=O)[C@H](CC(N)=O)NC(=O)[C@H](CO)NC2=O)C(=O)N[C@@H](CCCNC(=N)N)C(=O)N[C@@H](Cc2c[nH]cn2)C(=O)N[C@@H](CC(N)=O)C(=O)N[C@@H](Cc2c[nH]cn2)C(=O)N2CCC[C@H]2C(=O)N1)C(N)=O [gAusIA [A4S ∆5]] (H-SCCSNPACRHNHPCV-NH2; disulfide 2-8, 3-14) | 0.428 ± 0.112
CC[C@H](C)[C@@H]1NC(=O)[C@H](CC(N)=O)NC(=O)[C@@H]2CCCN2C(=O)[C@H](CC(N)=O)NC(=O)[C@H](CC(N)=O)NC(=O)[C@H](C(C)C)NC(=O)[C@H](CCCNC(=N)N)NC(=O)[C@@H]2CSSC[C@H](NC(=O)CNC(=O)[C@@H](N)CO)C(=O)N[C@@H](CSSC[C@@H](C(N)=O)NC1=O)C(=O)N[C@@H](CO)C(=O)N[C@@H](CCCNC(=N)N)C(=O)N[C@@H](CC(N)=O)C(=O)N1CCC[C@H]1C(=O)N[C@@H](C)C(=O)N2 [gLsIA [∇R6]] (H-SGCCSRNPACRVNNPNIC-NH2; disulfide 3-10, 4-18) | 8 ± 0.52
C[C@@H]1NC(=O)[C@@H]2CSSC[C@H](NC(=O)[C@H](C)NC(=O)[C@@H]3CCCN3C(=O)[C@H](CC(N)=O)NC1=O)C(=O)N[C@@H](CCCNC(=N)N)C(=O)N[C@@H](Cc1c[nH]cn1)C(=O)N[C@@H](CC(N)=O)C(=O)N[C@@H](Cc1c[nH]cn1)C(=O)N1CCC[C@H]1C(=O)N[C@H](C(N)=O)CSSC[C@H](NC(=O)[C@@H](N)CO)C(=O)N2 [rAusIA [∆5 ∆16]] (H-SCCANPACRHNHPC-NH2; disulfide 2-14, 3-8) | 27 ± 5.3
CC(C)[C@H](NC(=O)[C@@H]1CSSC[C@H](NC(=O)[C@@H](N)CO)C(=O)N[C@H]2CSSC[C@H](NC(=O)[C@H](C)NC(=O)[C@@H]3CCCN3C(=O)[C@H](CC(N)=O)NC(=O)[C@H](C)NC2=O)C(=O)N[C@@H](CCCNC(=N)N)C(=O)N[C@@H](Cc2c[nH]cn2)C(=O)N[C@@H](CC(N)=O)C(=O)N[C@@H](Cc2c[nH]cn2)C(=O)N2CCC[C@H]2C(=O)N1)C(N)=O [rAusIA [∆5]] (H-SCCANPACRHNHPCV-NH2; disulfide 2-14, 3-8) | 51 ± 11.6
CC(C)[C@H](NC(=O)[C@@H]1CSSC[C@@H]2NC(=O)[C@@H](NC(=O)[C@@H](N)CO)CSSC[C@H](NC(=O)[C@H](C)NC(=O)[C@@H]3CCCN3C(=O)[C@H](CC(N)=O)NC(=O)[C@H](C)NC2=O)C(=O)N[C@@H](CCCNC(=N)N)C(=O)N[C@@H](Cc2c[nH]cn2)C(=O)N[C@@H](CC(N)=O)C(=O)N[C@@H](Cc2c[nH]cn2)C(=O)N2CCC[C@H]2C(=O)N1)C(N)=O [gAusIA [∆5]] (H-SCCANPACRHNHPCV-NH2; disulfide 2-8, 3-14) | 0.59 ± 0.08
CC[C@H](C)[C@@H]1NC(=O)[C@H](CC(N)=O)NC(=O)[C@@H]2CCCN2C(=O)[C@H](CC(N)=O)NC(=O)[C@H](CC(N)=O)NC(=O)[C@H](C(C)C)NC(=O)[C@H](CCCNC(=N)N)NC(=O)[C@@H]2CSSC[C@H](NC(=O)[C@@H](NC(=O)CNC(=O)[C@@H](N)CO)CSSC[C@@H](C(N)=O)NC1=O)C(=O)N[C@@H](CCCNC(=N)N)C(=O)N[C@@H](CC(N)=O)C(=O)N1CCC[C@H]1C(=O)N[C@@H](C)C(=O)N2 [rLsIA [S5R]] (H-SGCCRNPACRVNNPNIC-NH2; disulfide 3-17, 4-9) | 27 ± 5.3

Source: article PMC8578332 (Scientific Reports, 2021)
